Test results reported in patent US20220193047A1, “METHODS OF ENHANCING RADIOTHERAPY USING FERROPTOSIS INDUCERS AS RADIOSENSITIZERS” (THE TRUSTEES OF COLUMBIA UNIVERSITY IN THE CITY OF NEW YORK, priority 2019, published 2022).

Experiments:
[1] = test system: SK-LMS-1 cells; experiment: Clonogenic assay with radiation, SK-LMS-1; assay type: cell-based
Experimental: 500 cells were seeded per well in 6-well plates in their respective growth media and incubated overnight. The next day, cells were co-treated with DMSO or compounds and radiation using a Gammacell 40 Caesium-137 irradiator (Theratronics). Plates were monitored every day using a light microscope for formation of colonies in the DMSO-treated wells. When colonies of >50 cells are clearly visible, the growth medium was discarded from all plates. The cells were washed with PBS, then fixed and stained with crystal violet solution (0.05% crystal violet, 1% formaldehyde, 1% methanol in PBS). Colonies were then directly visualized and counted.
The coefficient of drug interaction (CDI), used to compute interaction between two drugs, was used to quantify synergy between cell death inducers and radiation according to the formula CDI=AB/(A×B), where AB is the surviving fraction of the combination treatment, and A and B are the surviving fractions of the individual treatments. […]
It was then tested whether cell death enhancement of radiation with ferroptosis inducers occurred across diverse tumor cell types. […] In addition to the initial ferroptosis-sensitive HT-1080 sarcoma cell line, glioma and lung cancer cells were evaluated, due to the clinical relevance of radiation therapy for the treatment of these tumor types. […]

[2] = test system: HT-1080 cells; experiment: Cell Titer Glo cell viability assay with radiation; assay type: cell-based; conditions: HT-1080, 4 Gy radiation for 24 h
Experimental: HT-1080 cells were plated at 1,000 cells per well in white 96-well plates (100 uL per well) in technical duplicates. The cells were then treated with vehicle (DMSO), Ferrostatin-1, DFO, Z-VAD-FMK or Necrostatin-1S and incubated overnight. […] After another 24 h, 100 uL of 50% Cell Titer Glo (Promega) 50% cell culture medium was added to each well and incubated at room temperature with shaking for 15 min. Luminescence was measured using a Victor X5 plate reader (PerkinElmer). Experiments were performed three independent times with different passages for each cell line.

[3] = test system: malondialdehyde (MDA); experiment: TBARS assay of MDA levels; assay type: cell-based; conditions: HT-1080, 24 h; 1 μM IKE or 10 μM ferrostatin-1, with or without 6 Gy radiation
Experimental: 2 million cells were seeded in T175 flasks. […] The whole lysate was used to determine MDA concentration in each sample. We used the TBARS assay kit (Cayman Chemical) and followed the product instructions.
Next, levels of malondialdehyde (MDA), a biomarker for lipid peroxidation and ferroptosis, were quantified using an assay that measures thiobarbituric acid reactive substances (TBARS) (Gaschler et al., 2018). In this assay, thiobarbituric acid (TBA) was added to cell lysates and heated under acidic conditions to form the MDA-TBA adduct, which was measured colorimetrically.

[4] = test system: reduced glutathione (GSH) in HT-1080 cells; experiment: Reduced glutathione measurement in cells; assay type: cell-based; conditions: HT-1080, irradiated cells (2 or 6 Gy, 24 hours) co-treated with 2 μM IKE
Experimental: Cystine taken up by system xc^− is reduced to cysteine, a building block in the biosynthesis of glutathione. […] Using a fluorometric GSH probe, we observed that treatment with 2 or 6 Gy radiation for 24 hours depleted GSH in a dose-dependent manner in HT-1080 cells (FIG. 2E). […] Indeed, the decrease in colony formation of HT-1080 cells following 2 or 4 Gy radiation was rescued by either glutathione methyl ester or N-acetylcysteine, which is a biological precursor to glutathione (FIG. 9).

[5] = test system: lipid species in HT-1080 cells; experiment: Mass spectrometry-based untargeted lipidomics; assay type: cell-based
Experimental: Homogenized samples were transferred to fresh glass tubes containing 850 mL of cold methyl-tertbutyl ether (MTBE) and vortex-mixed for 30 sec. To enhance extraction efficiency of lipids, the samples were incubated for one hour at 4° C. on an orbital shaker. Afterwards, 200 mL of cold water was added to each sample, and incubated for 20 min on ice before centrifugation at 3,000 rpm for 20 min at 4° C. The organic layer was collected followed by drying under a gentle stream of nitrogen gas on ice and stored at −80° C. until UPLC-MS analysis. The protein pellet was used to measure protein concentration for normalization using Bio-Rad protein assay. The samples were re-constituted in a solution containing 2-propanol/acetonitrile/water (4:3:1, v/v/v) containing mixture of internal standard (PLASH® LIPIDOMIX® Mass Spec Standard, Avanti Polar Lipids, INC.) for further UPLC-MS analysis. A quality control (QC) sample was prepared by combining 40 mL of each sample to assess the reproducibility of the features through the runs.
Chromatographic separation of extracted lipids was carried out at 55° C. on ACQUITY UPLC CSH C18 Column, (130 Å, 1.7 μm, 2.1 mm×100 mm) over a 20-min gradient elution. Mobile phase A consisted of ACN/water (60:40, v/v) and mobile phase B was 2-propanol/ACN/water (85:10:5, v/v/v) both containing 10 mM ammonium acetate and 0.1% acetic acid. […]

[6] = test system: MDA in HT-1080 xenograft tumor tissue; experiment: MDA immunohistochemistry on paraffin-embedded tumor sections; assay type: in vivo, mice; conditions: tumors resected at day 14
Experimental: Tumor tissue was fixed in 4% paraformaldehyde (PFA) for 24 h at 4° C. followed by washing three times with PBS. The samples were fixed in paraffin. Six series of […] sections were obtained with a sliding microtome. The serial sections were then mounted on gelatin-coated slide. The paraffin-embedded tissue sections were deparaffinized with xylene three times, 5 min each, followed by rehydrating in 100%, 90%, 70%, and 50% ethanol, two washes 5 min each, then rinsed with distilled water. Antigen retrieval was performed in sodium citrate buffer, pH 6.0, 95-100° C. for 10 min. Sections were then rinsed in PBST, 2 min each. A hydrophobic barrier pen was used to draw a circle on each slide. The slides were permeabilized with PBS/0.4% Triton X-100 twice before non-specific-binding blocking by incubating the sections with 10% goat serum (ThermoFisher 50197Z) for 30 minutes at room temperature. […] All images were captured on a Zeiss LSM 700 confocal microscope with constant laser intensity for all analyzed samples. The intensity above threshold of the fluorescent signal of the bound antibodies was analyzed using NIH ImageJ software.
Next, malondialdehyde (MDA) levels, as a biomarker for ferroptosis, were measured in tumor tissue using immunohistochemistry on fixed and paraffin-embedded tumor samples resected at day 14 post-treatment (FIG. 6B).

[7] = test system: TM00219 patient-derived xenograft tumors; experiment: Patient-derived xenograft study in mice (TM00219 lung adenocarcinoma); assay type: in vivo; conditions: 40 mg/kg i.p. daily for 14 days, NSG mice
Experimental: The experiment was conducted according to the same protocol as the HT-1080 tumor xenograft study, with the exception that a single dose of radiation (sham or 6 Gy) was delivered to the tumor on day 1 of the experiment.
Finally, the effect of ferroptosis-inducing system xc^− inhibitors, in combination with radiation, was tested on a patient-derived xenograft (PDX) model of lung adenocarcinoma, which is another type of cancer commonly treated with radiation therapy. NSG mice engrafted with a human lung adenocarcinoma tumor (TM00219) were evaluated.

[8] = assay type: in vivo; conditions: 40 mg/kg IKE i.p. 14 days, with or without 6 Gy radiation
[9] = test system: HT-1080 xenograft tumors; experiment: HT-1080 tumor xenograft study in mice; conditions: 40 mg/kg IKE i.p. daily for 14 days
Experimental: The injections were repeated daily for 14 days. […] For the sorafenib experiment, the formulation used was 40 mg/kg sorafenib in 5% DMSO, 20% ethanol in water containing 30% w/v cyclodextrin. […] Tumor size was measured daily using calipers and mouse weight was measured daily.
The efficacy of the combined treatment regimen of radiation and ferroptosis inducer was evaluated in an in vivo tumor model. […] Athymic nude mice were implanted with subcutaneous HT-1080 fibrosarcoma cells to form xenograft tumors.

| Compound | Highest observed coefficient of Drug Interaction (CDI) in combination with IR [1] | Cell viability after radiation (ATP-based luciferase assay) [2] | MDA levels [3] | Levels of reduced glutathione [4] | Abundance of 17 lipid species (FA 16:1, lysophospholipids, diacylglycerols) ([5]; HT-1080, 5 μM IKE for 12 h) | Abundance of 17 lipid species (FA 16:1, lysophospholipids, diacylglycerols) ([5]; HT-1080, 5 μM IKE for 12 h plus 6 Gy radiation for 24 h) | MDA signal in tumors, IKE and radiation vs vehicle [6] | MDA signal in tumors, IKE only vs vehicle [6] | Tumor growth, combination with radiation vs all other groups ([7]; 6 Gy on day one) | Tumor growth, drug alone vs vehicle only [7] | Tolerability (weight loss) [8] | Tumor volume, IKE plus radiation ([9]; 6 Gy on days 2 and 4) | Tumor volume, IKE alone ([9]; athymic nude mice) |
| --- | --- | --- | --- | --- | --- | --- | --- | --- | --- | --- | --- | --- | --- |
| COC(=O)c1ccc([C@@H]2c3[nH]c4ccccc4c3C[C@@H](C(=O)OC)N2C(=O)CCl)cc1 [RSL3, Ras Synthetic Lethal 3] | 0.31 |  |  |  |  |  |  |  |  |  |  |  |  |
| CCOC(=O)c1ccc(NC2CCCCC2)c(N)c1 [ferrostatin-1] |  | rescued from death | significantly lower levels of MDA |  |  |  |  |  |  |  |  |  |  |
| CC(C)Oc1ccc(C(=O)Cn2ccnc2)cc1-n1c(CN2CCN(C(=O)COc3ccc(Cl)cc3)CC2)nc2ccccc2c1=O [IKE, imidazole ketone erastin] | 0.48 |  | significantly elevated | further decreased | increased significantly | even larger increases | Significantly elevated MDA signal | No significant differences | significant tumor growth inhibition | significant tumor control | well tolerated | enhanced the effects of radiation in reducing tumor growth | not strongly effective |
